Results on 22 compounds are retold here after ChEMBL document CHEMBL1154592, “Triazine and pyrimidine based ROCK inhibitors with efficacy in spontaneous hypertensive rat model” (Bioorg Med Chem Lett, 2009).

In test [1] the target is Rho-associated protein kinase 1 (Homo sapiens, UniProt Q13464). The test can be described thus: Inhibition of ROCK1 by IMAP assay.
Test [2] has as its system Rattus norvegicus. Put plainly: Decrease in mean arterial blood pressure in spontaneous hypertensive rat model at 30 mg/kg, sc. Further details: dose 30 mg/kg. The format is functional, organism-based. The following applies: Artery.
Test [3] addresses Casein kinase I isoform delta (Homo sapiens) (UniProt P48730). Put plainly: Inhibition of CK1delta at 2 uM.
Test [4] addresses Insulin receptor (Homo sapiens) (UniProt P06213). Put plainly: Inhibition of IR at 2 uM.
Test [5] has as its target Calcium/calmodulin-dependent protein kinase type IV (Homo sapiens) (UniProt Q16566). Put plainly: Inhibition of CaMK4 at 2 uM.
The target in test [6] is Aurora kinase A (Homo sapiens) (UniProt O14965). Put plainly: Inhibition of AuroraA at 2 uM.
Chain of Aurora kinase A (Homo sapiens) (O14965 whole entry): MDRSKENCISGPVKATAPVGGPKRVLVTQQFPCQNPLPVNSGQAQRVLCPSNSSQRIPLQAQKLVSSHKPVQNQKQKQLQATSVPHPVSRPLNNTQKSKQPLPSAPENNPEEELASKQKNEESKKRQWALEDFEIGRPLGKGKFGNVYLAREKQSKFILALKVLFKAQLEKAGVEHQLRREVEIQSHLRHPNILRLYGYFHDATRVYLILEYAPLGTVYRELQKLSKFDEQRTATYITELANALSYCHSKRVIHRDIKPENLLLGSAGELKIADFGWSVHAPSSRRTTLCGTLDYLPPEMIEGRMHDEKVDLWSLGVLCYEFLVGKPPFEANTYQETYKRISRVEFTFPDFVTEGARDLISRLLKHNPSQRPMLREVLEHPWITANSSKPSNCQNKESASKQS
Test [7] concerns the target Glycogen synthase kinase-3 beta (Homo sapiens) (UniProt P49841). The test can be described thus: Inhibition of GSK3-beta at 2 uM.
For test [8], the target named is Proto-oncogene tyrosine-protein kinase Src (Homo sapiens) (UniProt P12931). Put plainly: Inhibition of cSRC at 2 uM.
Chain of Proto-oncogene tyrosine-protein kinase Src (Homo sapiens) (P12931 2-536 limits assumed): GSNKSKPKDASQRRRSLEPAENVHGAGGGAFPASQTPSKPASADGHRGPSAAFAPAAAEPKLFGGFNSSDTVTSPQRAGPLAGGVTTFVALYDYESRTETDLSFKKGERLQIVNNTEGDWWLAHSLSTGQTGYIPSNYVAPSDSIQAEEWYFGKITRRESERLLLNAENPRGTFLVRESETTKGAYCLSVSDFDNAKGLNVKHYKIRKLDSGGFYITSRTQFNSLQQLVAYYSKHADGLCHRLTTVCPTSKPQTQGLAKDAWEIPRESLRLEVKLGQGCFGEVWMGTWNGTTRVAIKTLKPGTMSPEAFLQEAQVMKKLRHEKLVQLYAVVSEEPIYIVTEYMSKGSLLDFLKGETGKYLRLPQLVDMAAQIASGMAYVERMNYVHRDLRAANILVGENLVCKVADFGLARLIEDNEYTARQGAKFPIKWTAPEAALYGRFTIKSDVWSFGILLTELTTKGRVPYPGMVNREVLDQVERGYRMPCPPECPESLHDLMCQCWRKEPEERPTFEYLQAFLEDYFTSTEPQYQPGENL
In test [9] the target is Dual specificity mitogen-activated protein kinase kinase 1 (Homo sapiens) (UniProt Q02750). Put plainly: Inhibition of MEK1 at 2 uM.
Chain of Dual specificity mitogen-activated protein kinase kinase 1 (Homo sapiens) (Q02750 whole entry): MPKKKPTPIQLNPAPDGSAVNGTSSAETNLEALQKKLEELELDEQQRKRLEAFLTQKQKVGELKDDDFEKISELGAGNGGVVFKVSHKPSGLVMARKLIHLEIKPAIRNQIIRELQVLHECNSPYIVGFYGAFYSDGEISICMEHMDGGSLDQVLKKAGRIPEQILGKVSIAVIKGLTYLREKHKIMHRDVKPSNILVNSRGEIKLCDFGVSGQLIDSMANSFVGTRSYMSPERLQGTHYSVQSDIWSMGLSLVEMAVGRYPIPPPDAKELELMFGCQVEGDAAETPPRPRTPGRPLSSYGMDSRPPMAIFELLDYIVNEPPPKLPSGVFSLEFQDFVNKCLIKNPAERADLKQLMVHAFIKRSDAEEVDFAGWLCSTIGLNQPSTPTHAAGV
Test [10] addresses Tyrosine-protein kinase ZAP-70 (Homo sapiens) (UniProt P43403). Put plainly: Inhibition of Zap70 at 2 uM.
Test [11] has as its target Platelet-derived growth factor receptor beta (Homo sapiens) (UniProt P09619). Put plainly: Inhibition of PDGFRbeta at 2 uM.
Test [12] concerns the target RAF proto-oncogene serine/threonine-protein kinase (Homo sapiens) (UniProt P04049). Put plainly: Inhibition of cRAF at 2 uM.
The target in test [13] is Tyrosine-protein kinase Lck (Homo sapiens) (UniProt P06239). The test can be described thus: Inhibition of LCK at 2 uM.
The target of test [14] is Cyclin-dependent kinase 2 (Homo sapiens) (UniProt P24941). Put plainly: Inhibition of CDK2 at 2 uM.
Test [15] has as its system Rattus norvegicus. The test can be described thus: Decrease in mean arterial blood pressure in spontaneous hypertensive rat model at 10 mg/kg, sc. The format is functional, organism-based. Further details: dose 10 mg/kg. To be noted: Artery.
The subject of test [16] is Rattus norvegicus. Put plainly: Decrease in mean arterial blood pressure in spontaneous hypertensive rat model at 3 mg/kg, sc. To be noted: Artery. Further details: dose 3 mg/kg. The test is classed as functional, organism-based.
Test [17] in a line: Inhibition of CK2 at 2 uM.
In test [18] the target is Ribosomal protein S6 kinase alpha-3 (Homo sapiens) (UniProt P51812). The test can be described thus: Inhibition of Rsk2 at 2 uM.
Chain of Ribosomal protein S6 kinase alpha-3 (Homo sapiens) (P51812 whole entry): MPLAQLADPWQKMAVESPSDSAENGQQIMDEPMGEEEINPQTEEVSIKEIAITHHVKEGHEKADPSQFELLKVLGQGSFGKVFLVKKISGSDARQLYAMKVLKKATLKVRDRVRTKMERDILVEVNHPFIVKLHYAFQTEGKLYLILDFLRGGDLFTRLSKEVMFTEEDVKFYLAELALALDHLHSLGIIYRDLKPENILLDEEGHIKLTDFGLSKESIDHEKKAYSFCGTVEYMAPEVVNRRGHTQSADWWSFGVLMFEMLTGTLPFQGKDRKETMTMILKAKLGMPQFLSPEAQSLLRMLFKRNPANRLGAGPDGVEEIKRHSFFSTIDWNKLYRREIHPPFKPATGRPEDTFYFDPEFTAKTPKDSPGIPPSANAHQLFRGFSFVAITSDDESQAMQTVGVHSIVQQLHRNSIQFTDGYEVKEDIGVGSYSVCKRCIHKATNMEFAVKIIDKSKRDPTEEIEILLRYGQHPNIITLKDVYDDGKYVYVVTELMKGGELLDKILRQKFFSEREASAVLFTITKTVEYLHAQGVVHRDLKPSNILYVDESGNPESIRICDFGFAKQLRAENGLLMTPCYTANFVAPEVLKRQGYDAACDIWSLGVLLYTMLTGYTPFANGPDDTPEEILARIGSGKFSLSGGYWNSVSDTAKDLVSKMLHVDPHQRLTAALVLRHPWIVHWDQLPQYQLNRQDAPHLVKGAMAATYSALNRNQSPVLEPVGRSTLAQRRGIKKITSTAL
Test [19] has as its target Hepatocyte growth factor receptor (Homo sapiens) (UniProt P08581). The test can be described thus: Inhibition of Met at 2 uM.
In test [20] the target is Epidermal growth factor receptor (Homo sapiens) (UniProt P00533). The test can be described thus: Inhibition of EGFR at 2 uM.
A short description of test [21]: Inhibition of MAPK at 2 uM.
The target of test [22] is BDNF/NT-3 growth factors receptor (Homo sapiens) (UniProt Q16620). The test can be described thus: Inhibition of TRKbeta at 2 uM.
Test [23] concerns the target Tyrosine-protein kinase CSK (Homo sapiens) (UniProt P41240). The test can be described thus: Inhibition of CSK at 2 uM.
Test [24] deals with Serine/threonine-protein kinase STK11 (Homo sapiens) (UniProt Q15831). The test can be described thus: Inhibition of LKB1 at 2 uM.
For test [25], the target named is Serine/threonine-protein kinase PAK 2 (Homo sapiens) (UniProt Q13177). The test can be described thus: Inhibition of PAK2 at 2 uM.
Chain of Serine/threonine-protein kinase PAK 2 (Homo sapiens) (Q13177 whole entry): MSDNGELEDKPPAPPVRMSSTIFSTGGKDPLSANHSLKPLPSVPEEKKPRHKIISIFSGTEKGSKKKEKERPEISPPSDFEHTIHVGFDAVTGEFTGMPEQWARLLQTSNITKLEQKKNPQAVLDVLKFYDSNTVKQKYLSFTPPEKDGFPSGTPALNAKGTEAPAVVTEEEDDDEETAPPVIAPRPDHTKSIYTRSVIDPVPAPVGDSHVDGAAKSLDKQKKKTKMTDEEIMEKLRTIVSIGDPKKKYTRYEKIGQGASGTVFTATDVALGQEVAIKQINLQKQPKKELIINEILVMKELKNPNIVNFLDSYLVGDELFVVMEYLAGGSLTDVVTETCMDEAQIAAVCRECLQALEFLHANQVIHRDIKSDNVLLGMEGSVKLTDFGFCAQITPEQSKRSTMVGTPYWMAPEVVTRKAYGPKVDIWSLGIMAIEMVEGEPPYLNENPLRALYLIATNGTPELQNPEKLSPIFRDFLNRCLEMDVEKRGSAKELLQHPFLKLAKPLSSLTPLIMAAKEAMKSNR
Test [26] concerns the target Serine/threonine-protein kinase Nek2 (Homo sapiens) (UniProt P51955). The test can be described thus: Inhibition of NEK2 at 2 uM.
For test [27], the target named is MAP kinase-activated protein kinase 2 (Homo sapiens) (UniProt P49137). The test can be described thus: Inhibition of MAPK2 at 2 uM.
The target in test [28] is Serine/threonine-protein kinase Chk1 (Homo sapiens) (UniProt O14757). The test can be described thus: Inhibition of CHK1 at 2 uM.

The structures appear in SMILES notation. Activity calls are given as the source filed them. No cut-off for these calls is given here.

Chain of Rho-associated protein kinase 1 (Q13464 whole entry): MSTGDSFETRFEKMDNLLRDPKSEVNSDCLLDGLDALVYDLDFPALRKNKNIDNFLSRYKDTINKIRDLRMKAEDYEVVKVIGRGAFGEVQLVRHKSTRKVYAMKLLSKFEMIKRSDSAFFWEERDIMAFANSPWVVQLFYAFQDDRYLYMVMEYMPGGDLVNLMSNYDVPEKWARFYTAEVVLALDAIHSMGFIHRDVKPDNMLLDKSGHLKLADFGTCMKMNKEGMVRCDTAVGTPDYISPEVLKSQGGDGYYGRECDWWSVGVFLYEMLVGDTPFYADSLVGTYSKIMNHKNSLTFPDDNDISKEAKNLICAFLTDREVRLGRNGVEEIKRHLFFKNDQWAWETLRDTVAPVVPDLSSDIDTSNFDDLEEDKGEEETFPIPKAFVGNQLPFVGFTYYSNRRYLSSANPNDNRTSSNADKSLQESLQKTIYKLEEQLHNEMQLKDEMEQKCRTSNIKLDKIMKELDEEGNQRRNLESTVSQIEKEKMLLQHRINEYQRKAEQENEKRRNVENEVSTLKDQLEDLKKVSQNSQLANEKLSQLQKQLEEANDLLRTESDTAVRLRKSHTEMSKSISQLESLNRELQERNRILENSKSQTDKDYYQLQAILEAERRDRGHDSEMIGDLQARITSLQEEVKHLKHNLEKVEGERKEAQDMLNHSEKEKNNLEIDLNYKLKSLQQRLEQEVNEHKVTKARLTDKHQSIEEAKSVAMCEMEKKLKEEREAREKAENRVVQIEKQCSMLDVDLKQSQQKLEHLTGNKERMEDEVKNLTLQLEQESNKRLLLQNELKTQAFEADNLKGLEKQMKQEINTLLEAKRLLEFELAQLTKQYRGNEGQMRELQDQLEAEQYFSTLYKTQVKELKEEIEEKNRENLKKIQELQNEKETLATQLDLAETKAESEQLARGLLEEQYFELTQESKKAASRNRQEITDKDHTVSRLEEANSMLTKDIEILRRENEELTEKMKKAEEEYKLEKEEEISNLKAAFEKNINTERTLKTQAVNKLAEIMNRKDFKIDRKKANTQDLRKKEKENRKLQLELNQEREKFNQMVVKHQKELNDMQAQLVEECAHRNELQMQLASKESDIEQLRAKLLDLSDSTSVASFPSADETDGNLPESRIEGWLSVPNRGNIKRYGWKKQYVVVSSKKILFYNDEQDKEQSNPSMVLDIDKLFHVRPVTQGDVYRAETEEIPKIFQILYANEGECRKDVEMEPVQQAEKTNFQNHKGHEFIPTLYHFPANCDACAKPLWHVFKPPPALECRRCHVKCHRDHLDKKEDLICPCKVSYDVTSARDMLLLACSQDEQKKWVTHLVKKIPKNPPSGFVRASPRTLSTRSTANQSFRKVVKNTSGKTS
Chain of Calcium/calmodulin-dependent protein kinase type IV (Homo sapiens) (Q16566 whole entry): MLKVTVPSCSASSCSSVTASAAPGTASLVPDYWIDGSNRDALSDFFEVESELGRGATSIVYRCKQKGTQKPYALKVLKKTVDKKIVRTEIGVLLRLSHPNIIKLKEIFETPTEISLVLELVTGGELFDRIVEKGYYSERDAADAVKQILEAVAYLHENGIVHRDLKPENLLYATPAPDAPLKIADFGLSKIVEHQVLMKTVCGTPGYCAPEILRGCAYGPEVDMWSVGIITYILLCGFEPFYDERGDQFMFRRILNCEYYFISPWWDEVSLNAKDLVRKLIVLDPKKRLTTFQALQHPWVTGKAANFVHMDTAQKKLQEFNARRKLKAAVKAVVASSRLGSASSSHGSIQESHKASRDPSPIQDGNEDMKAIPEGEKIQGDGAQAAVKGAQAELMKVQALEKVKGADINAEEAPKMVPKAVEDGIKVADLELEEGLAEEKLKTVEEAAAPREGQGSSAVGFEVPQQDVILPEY
Chain of Tyrosine-protein kinase CSK (Homo sapiens) (P41240 2-450 limits assumed): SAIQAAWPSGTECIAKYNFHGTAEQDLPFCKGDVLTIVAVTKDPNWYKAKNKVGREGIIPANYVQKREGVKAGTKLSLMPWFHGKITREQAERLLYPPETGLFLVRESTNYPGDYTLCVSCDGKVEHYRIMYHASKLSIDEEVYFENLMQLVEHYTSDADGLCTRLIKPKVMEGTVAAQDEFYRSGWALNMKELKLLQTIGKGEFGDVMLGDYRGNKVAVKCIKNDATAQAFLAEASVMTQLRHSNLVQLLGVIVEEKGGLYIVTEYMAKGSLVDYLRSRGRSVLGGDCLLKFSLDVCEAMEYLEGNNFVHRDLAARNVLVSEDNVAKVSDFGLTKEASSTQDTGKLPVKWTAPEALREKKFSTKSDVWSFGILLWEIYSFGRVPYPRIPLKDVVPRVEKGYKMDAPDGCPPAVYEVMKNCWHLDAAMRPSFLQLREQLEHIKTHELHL

For `C[C@H]1CNCCN1c1nc(Nc2ccncc2)nc(NC2Cc3ccccc3C2)n1`, the IC50 (in general, the concentration at which inhibition is half-maximal) in test [1] came to 87 nM.

In [1], `c1ccc2c(c1)CC(Nc1cc(N3CCNCC3)nc(Nc3ccncc3)n1)C2` showed an IC50 of 14 nM.

`c1ccc(Nc2nc(NC3Cc4ccccc4C3)nc(N3CCNCC3)n2)cc1` returned an IC50 in test [1] of 7400 nM.

Turning to `C[C@@H](N)[C@H]1CC[C@H](C(=O)Nc2ccncc2)CC1`, the result with Rattus norvegicus [2] was Active.

In [1], `c1ccc2c(c1)CC(Oc1nc(Nc3ccncc3)nc(N3CCNCC3)n1)C2` came in with an IC50 of 8 nM.

Turning to `c1ccc(CCNc2nc(Nc3ccncc3)nc(N3CCNCC3)n2)cc1`, the IC50 in test [1] came to 326 nM.

`c1cncc(Nc2nc(NC3Cc4ccccc4C3)nc(N3CCNCC3)n2)c1`: the IC50 in test [1] is 8400 nM.

In [1], `C[C@@H]1CN(c2nc(Nc3ccncc3)nc(NC3Cc4ccccc4C3)n2)CCN1` showed an IC50 of 8 nM.

`c1ccc(Nc2nc(NC3Cc4ccccc4C3)nc(N3CCNCC3)n2)nc1` displayed an IC50 in test [1] of 1000 nM.

`c1ccc2c(c1)CC(Nc1nc(Nc3ccncc3)nc(N3CCCCC3)n1)C2`: in test [1], inhibition was half-maximal at 8300 nM (IC50).

In test [1], `c1ccc2c(c1)CCC(Nc1nc(Nc3ccncc3)nc(N3CCNCC3)n1)C2` (stereo not drawn) showed a half-maximal inhibitory concentration (IC50) of 23 nM.

In the case of `c1ccc2c(c1)CCC2Nc1nc(Nc2ccncc2)nc(N2CCNCC2)n1` (stereo not drawn), inhibition in [1] was half-maximal at 185 nM (IC50).

In test [1], `c1ccc(CNc2nc(Nc3ccncc3)nc(N3CCNCC3)n2)cc1` showed an IC50 of 400 nM.

In turn, `C[C@@H]1CNCCN1c1nc(Nc2ccncc2)nc(NC2Cc3ccccc3C2)n1` gave an IC50 in [1] of 118 nM.

For the compound `c1ccc2c(c1)CC(Nc1cc(Nc3ccncc3)nc(N3CCNCC3)n1)C2`, in test [1], the IC50 turned out to be 2 nM.

On to `C[C@H]1CN(c2nc(Nc3ccncc3)nc(NC3Cc4ccccc4C3)n2)CCN1`, for which, in test [1], the IC50 was determined as 135 nM.

`c1cc(Nc2nc(NC3CCCC3)nc(N3CCNCC3)n2)ccn1` gave an IC50 in [1] of 890 nM.

In test [1], `c1ccc2c(c1)CC(Nc1nc(Nc3ccncc3)cc(N3CCNCC3)n1)C2` showed an IC50 of 1200 nM.

For `c1ccc2c(c1)CC(Nc1nc(Nc3ccncc3)nc(N3CCCNCC3)n1)C2`, the IC50 in test [1] came to 11 nM.

Take `c1ccc2c(c1)CC(Nc1nc(Nc3ccncc3)nc(N3CCNCC3)n1)C2`: the inhibition in test [3], in test [4], in [5], in [6], in test [7] and in test [8] was under 50% in each case. In addition, the inhibition in test [9], in test [10], in [11], in test [12], in test [13] and in test [14] was under 50% each time. Moreover, the inhibition in test [17], in test [18], in test [19], in test [20], in [21] and in [22] was under 50% each time. Further, the inhibition in test [23], in test [24], in test [25], in test [26], in [27] and in test [28] was under 50% throughout. In addition, the outcome with Rattus norvegicus [15] and in the test with Rattus norvegicus [16] was Active. In [1], this compound displayed an IC50 of 6 nM.

Regarding `CNCCN(C)c1nc(Nc2ccncc2)nc(NC2Cc3ccccc3C2)n1`, the IC50 in test [1] is 81 nM.

In turn, `CN1CCN(c2nc(Nc3ccncc3)nc(NC3Cc4ccccc4C3)n2)CC1` gave an IC50 in test [1] of 305 nM.
